From the METLIN SMRT retention time set (Domingo-Almenara et al. 2019) come the findings set out here.

This data set can be described thus: gradient 5% acetonitrile 3 min, to 50% in 2 min, to 85% in 15 min, held 3 min, 100 µL/min. Particulars: column: Zorbax Extend-C18 2.1 x 50 mm; eluents: water / acetonitrile, 0.1% formic acid. A digest of the protocol:
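Pure standards were analyzed in mixtures of ~100 molecules using HPLC coupled to a quadrupole time-of-flight mass spectrometer, in both positive and negative ionization mode. Separation used a Zorbax Extend-C18 column (2.1 × 50 mm, 1.8 μm) at 100 μL/min, with water and acetonitrile each containing 0.1% formic acid. Dead and dwell volumes were 40 μL and 900 μL, and data were collected over 3 months. Retention time was read from computationally picked adduct peaks, each inspected manually.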
Regarding `CN(C)c1cccc(C(=O)NCc2nn(C)c3ccccc23)c1`, the RP-LC retention time is 709 s.
For `CC(C)CCNC(=O)CCCn1c2ccccc2c2cnn(C)c(=O)c21` the value was 865 s.
As for `C=C(C)Cn1c(CNC(=O)c2ccccc2)nc2ccccc21`, the RP-LC retention time was found to be 600 s.
Next, `CN(C)S(=O)(=O)c1ccc2c(c1)N(CC(=O)NCCCc1ccccc1)C(=O)C1CCCCN21` (stereo not given): 955 s.
Molecule `Cc1ccnc(N2CCCC(C(=O)NCCc3ccc(S(N)(=O)=O)cc3)C2)n1` (stereo not given) returned an RP-LC retention time of 604 s.
On to `Cc1c(F)cccc1NC(=O)N1C[C@@H](F)C[C@H]1C(=O)N1CCOCC1`, for which the RP-LC retention time stood at 653 s.
Molecule `CC(C)(C)C(=O)Nc1ccc(SCc2nnc(-c3ccc4c(c3)OCO4)o2)cc1` displayed an RP-LC retention time of 945 s.
`Cc1cccc(-c2noc(C3CCCN3C(=O)Nc3cccc(F)c3)n2)c1` (stereo not given) gave an RP-LC retention time of 1050 s.
For `CCCNc1nc(-c2cccc(Cl)c2)cs1` the value was 1020 s.
Molecule `CCN1CCN(CCCNC(=O)CCCN2C(=O)COc3ccc(C)cc32)CC1` yielded an RP-LC retention time of 585 s.
`Cc1ccccc1S(=O)(=O)N1CCC(CCC(=O)N2CCc3ccccc3C2)CC1`: the RP-LC retention time came to 1060 s.
As for `CCOc1ccc(Cl)cc1S(=O)(=O)N1CCC(C(=O)NCCCOC)CC1`, the RP-LC retention time came out at 761 s.
For `CCCCN1C(=O)C(NC(=O)c2ccccc2OC)(C(F)(F)F)C(C(C)=O)=C1C` (stereo not given) the value was 976 s.
For `COc1ccc(C(=O)N2CCc3c(c(C(=O)N4CCCC(C(=O)NC5CC5)C4)nn3C)C2)c(OC)c1` (stereo not given) the value was 638 s; for `COc1ccc(N2C(=O)C3N=NN(c4cccc(OC)c4)C3C2=O)cc1` (stereo not given), 905 s; for `Cc1cccc(-c2noc(C3CCCN3S(=O)(=O)c3cccc(Cl)c3C)n2)c1` (stereo not given), 1310 s.
Molecule `COc1ccc(CNC(=O)CN2C(=O)C3CCCCN3c3ccc(S(=O)(=O)N(C)C)cc32)cc1` (stereo not given) returned an RP-LC retention time of 887 s.
The molecule `NC(=O)c1cc(-c2ccc(F)cc2)nc2ccccc12` had an RP-LC retention time of 776 s.
For `O=C1CC(c2nc(-c3ccc(C(F)(F)F)cc3)no2)CN1c1ccc2c(c1)OCCO2` (stereo not given) the value was 1030 s.
Next, `CC(=O)N1CCCC1c1nc(C2CN(S(=O)(=O)C(C)C)C2)no1` (stereo not given): 635 s; `Cc1ccccc1N1CCN(C(=O)c2ccc3c(c2)CC(=O)N3C)CC1`: 839 s.
In the case of `CCOc1ccc(-c2csc3c(=O)n(Cc4ccc(N5CCCC5=O)cc4)cnc23)cc1OCC`, the RP-LC retention time stood at 929 s.
In turn, `CNC(=O)Nc1ccc(C2(C(=O)NC3CCCC3)CCC2)cc1` came in with an RP-LC retention time of 692 s.
Molecule `O=C(NCc1ccccn1)C1CCN(C(=O)c2ncn3c2COC(c2ccc(Cl)cc2)C3)CC1` (stereo not given) displayed an RP-LC retention time of 644 s.
The molecule `O=C(NCc1ccco1)C1CCN(S(=O)(=O)c2cc(C(=O)N3CCCCCC3)cs2)CC1` gave an RP-LC retention time of 815 s.
Turning to `Cc1ccc(C2CCCN2C(=O)c2nc3nc(C)cc(C(F)F)n3n2)cc1` (stereo not given), the RP-LC retention time is 835 s.
In turn, `CCN(CC)CCCNc1ccc(-c2nc(-c3ccc(OC)cc3)no2)cn1` showed an RP-LC retention time of 681 s.
`O=C(CCn1c(=O)sc2ccccc21)Nc1nc(-c2ccc(Br)cc2)cs1` gave an RP-LC retention time of 1120 s.
In turn, `Cc1cc(N2CCCC2)nc(N2CCN(C(=O)c3ccccc3Br)CC2)n1` yielded an RP-LC retention time of 579 s.
For `COCCOCC(=O)N1CC(Oc2ccc(-c3nc(C)no3)cc2)C1` the value was 679 s; for `O=C(c1c(OCC2CC2)cc(=O)n2c1CCCCC2)N1CCN(c2ccccn2)CC1`, 563 s.
`Cc1ccn2c(NC(=O)c3ccc(Cl)c([N+](=O)[O-])c3)c(-c3ccc(F)cc3)nc2c1` yielded an RP-LC retention time of 757 s.
`CC(C)c1ccc(Nc2c(-c3ccc(N4CCOCC4)cc3)nc3ncccn23)cc1`: the RP-LC retention time came to 806 s.
In turn, `CSc1cccc(NC(=O)N2CCCC2c2nc(-c3cccc(C)c3)no2)c1` (stereo not given) yielded an RP-LC retention time of 1080 s.
Consider `O=C(NCCC1CCN(C(=O)Nc2cc(F)cc(F)c2)CC1)C1CC1`, for which the RP-LC retention time is 735 s.
Consider `O=C(CN1CCN(C(=O)Nc2ccc(Cl)cc2)CC1=O)N1CCN(C2CCCCC2)CC1`, for which the RP-LC retention time worked out at 624 s.
`CCCNC(=O)N1CCC(c2noc(-c3ccccn3)n2)C1` (stereo not given) had an RP-LC retention time of 648 s.
As for `CSc1ccc(-c2nc3ccc(C)cn3c2NC2CCCCC2)cc1`, the RP-LC retention time turned out to be 878 s.
The molecule `CCc1ccc(S(=O)(=O)c2cnc(N3CCN(c4cccc(C)c4)CC3)nc2N)cc1` gave an RP-LC retention time of 1220 s.
The molecule `CCCNC(=O)c1cn(-c2cc(-c3nc(CC)no3)ccn2)cn1` displayed an RP-LC retention time of 780 s.
Molecule `Cc1ccc(CNC(=O)c2cc3n(n2)CC(C)(C(=O)NCCC(C)C)N(C)C3=O)cc1` (stereo not given) gave an RP-LC retention time of 802 s.
The molecule `O=S(=O)(c1ccc2nc(N3CCN(c4ccc(F)cc4)CC3)ccc2c1)N1CCCCC1` returned an RP-LC retention time of 1050 s.
For `CCN1CCN(S(=O)(=O)c2cc(-c3nc(C(C)C)cs3)sc2C)CC1`, the RP-LC retention time came out at 744 s.
Molecule `Cc1cccc2c3c(ccc12)C1=C(C(=O)C3=O)[C@@H](C)CO1` gave an RP-LC retention time of 1200 s.
As for `CC(C)c1nnc(NC(=O)C2CCN(C(=O)c3ccccc3F)CC2)s1`, the RP-LC retention time was 727 s.
The molecule `O=C1CC(NC(=O)Nc2ccccc2C(F)(F)F)CN1` (stereo not given) had an RP-LC retention time of 595 s.
`COCCCNC(=O)c1cc2n(n1)CCCN(Cc1ccc(F)cc1)C2=O` gave an RP-LC retention time of 697 s.
For `CCn1cc(C(=O)Nc2cccc(F)c2)c(S(=O)(=O)N2CCSCC2)n1` the value was 845 s; for `COc1cccc(-c2noc(C3CCCN3C(=O)Nc3cc(OC)ccc3OC)n2)c1` (stereo not given), 849 s; for `CCC(=O)NC(C)c1nc(-c2ccc(Cl)cc2)no1` (stereo not given), 823 s.
With `CCOC(=O)c1nc(NCc2ccc(Cl)cc2)c2ccccc2n1`, the RP-LC retention time stood at 868 s.
In turn, `Cn1nccc1-c1cccc(-c2noc(Cc3ccccc3F)n2)c1` gave an RP-LC retention time of 1050 s.
Molecule `Cn1cnc2ccc(-c3noc(-c4cccs4)n3)cc21` returned an RP-LC retention time of 685 s.
Turning to `Cc1nc(Cn2cccc2C(=O)Nc2ccc(F)cc2F)no1`, the RP-LC retention time was 793 s.
`Cn1nc(C(=O)N2CCCC(C(=O)NC3CC3)C2)c2c1CCN(C(=O)c1ccccc1Cl)C2` (stereo not given) showed an RP-LC retention time of 648 s.
Turning to `O=C(N[C@@H]1CN(c2ncccn2)C[C@H]1CO)c1ccco1`, the RP-LC retention time is 566 s.
Next, `Cn1cc(S(=O)(=O)N2CCC(C(=O)Nc3cccc(F)c3)CC2)cc1C(=O)N1CCCC1`: 772 s; `CCCS(=O)(=O)c1nc2ccc(NS(=O)(=O)c3ccc4c(c3)oc(=O)n4C)cc2s1`: 847 s.
Next, `CCN1CCN(c2nc(F)c(F)c(S(=O)(=O)CCNc3ccccc3)c2F)CC1`: 689 s.
`COc1cc(OC)cc(C(=O)Nc2cc(-c3cn4cccnc4n3)ccc2OC)c1` gave an RP-LC retention time of 708 s.
For `CCCN1C(=O)c2c(C(=O)NCc3ccc(F)cc3)ncn2CC1(C)C(=O)NC1CCCC1` (stereo not given) the value was 796 s; for `C[C@H]1CN(C(=O)c2c(F)cccc2F)C[C@@H]1c1nc(-c2ccncc2)no1`, 798 s; for `CCCC(=O)Nc1nc(-c2ccc3c(c2)N(C)C(=O)CO3)c(C)s1`, 856 s.
`Cc1oc(C2CCN(S(=O)(=O)c3ccccc3)CC2)nc1C(=O)N1CCOCC1` returned an RP-LC retention time of 758 s.
Regarding `CCn1nccc1-c1cccc(-c2noc(CNS(=O)(=O)c3ccccc3)n2)c1`, the RP-LC retention time turned out to be 884 s.
`CC(C)(CO)NC(=O)Cc1ccc(NC(=O)C2(c3ccc(F)cc3)CC2)cc1` returned an RP-LC retention time of 734 s.
For `CCn1ccc(C(=O)N2CCN(c3cc(-c4ccccc4)[nH]n3)CC2)n1` the value was 689 s; for `CN1c2cc(C(=O)N3CCN(c4ccccc4F)CC3)ccc2C(=O)N2CCCCC21` (stereo not given), 877 s.
As to `CCCN1CCN(c2ccc(-c3nc(-c4ccccc4)no3)cn2)CC1`, the RP-LC retention time was 715 s.
On to `O=C(NCC(O)C1CCCCC1)C(c1ccccc1)c1ccccc1` (stereo not given), for which the RP-LC retention time was 907 s.
`COCCNC(=O)CCc1c(-c2ccc(Cl)cc2)nc2ccccn12`: the RP-LC retention time worked out at 590 s.
On to `O=c1ccc(N2CCCN(S(=O)(=O)c3ccc(F)cc3F)CC2)nn1-c1ccc(Cl)cc1`, for which the RP-LC retention time turned out to be 966 s.
Take `CC1(C(=O)NCc2ccc(Cl)cc2)CCCCC(=O)N1` (stereo not given): the RP-LC retention time was 704 s.
Molecule `CCN(CCN(C)C)c1ccc(C(=O)O)cc1NS(=O)(=O)c1ccc(F)cc1` yielded an RP-LC retention time of 613 s.
On to `COc1cccc(C(=O)NC(c2ccccc2)c2nnc(N3CCCC3)o2)c1` (stereo not given), for which the RP-LC retention time worked out at 788 s.
For the molecule `O=C(c1ccccc1)c1ccc[nH]1`, the RP-LC retention time was found to be 842 s.
For `CN(CCc1noc(-c2ccc(F)cc2)n1)C(=O)NCCc1ccccc1` the value was 909 s; for `CCc1nccn1Cc1nc(-c2cccc(Cl)c2)no1`, 667 s; for `CCCN(CC1CCOC1)C(=O)Nc1cccc(C(F)(F)F)c1` (stereo not given), 922 s.
As to `Cc1cnc(C2CC2)n1C1CCN(Cc2ccc(F)cc2F)C1` (stereo not given), the RP-LC retention time worked out at 559 s.
